Measurements: US7138361B2, “Herbicidal heterocycles” (E. I. du Pont de Nemours and Company, priority 2000, dated 2006)

Assays:
Format in all cases: in vivo
Nightshade = assay: Test C preemergence; conditions: scale 0 to 100, 0 no effect, 100 complete control
Sunflower [1] = assay: Test C preemergence; conditions: Rate 125 g/ha; scale 0 to 100, 0 no effect, 100 complete control
[2] = tested on: Surinam grass (Brachiaria decumbens); assay: Test C preemergence; conditions: for Plant response rating, Surinam grass: scale 0 to 100, 0 no effect, 100 complete control; for Plant response rating (0 to 100), Surinam grass: preemergence, visual evaluation after 12 to 14 days
Procedure, shortened: (§1)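 Visual injury scores of 0–100, with 100 meaning complete control, were given relative to controls after 12–14 days in the greenhouse. Treatments used a surfactant-containing non-phytotoxic solvent formulation, sprayed on seeded pots preemergence or on 1–4-leaf plants of 2–18 cm postemergence.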

[3] = tested on: bermudagrass (Cynodon dactylon); assay: Test C preemergence; conditions: for Plant response rating, Bermudagrass: scale 0 to 100, 0 no effect, 100 complete control; for Plant response rating (0 to 100 where 0 is no effect and 100 is complete control), Bermudagrass: preemergence, visual evaluation after 12 to 14 days
Procedure, shortened: as §1

[4] = tested on: cocklebur (Xanthium strumarium); assay: Test C preemergence; conditions: for Plant response rating, Cocklebur: scale 0 to 100, 0 no effect, 100 complete control; for Plant response rating (0 to 100), Cocklebur: preemergence, visual evaluation after 12 to 14 days
Procedure, shortened: as §1

[5] = tested on: common ragweed (Ambrosia elatior); assay: Test C preemergence; conditions: for Plant response rating, Ragweed, Common: scale 0 to 100, 0 no effect, 100 complete control
Procedure, shortened: as §1

corn (Zea mays) = assay: Test C preemergence; conditions: for Plant response rating, Corn: scale 0 to 100, 0 no effect, 100 complete control; for Plant response rating (0 to 100), Corn: preemergence, visual evaluation after 12 to 14 days
Procedure, shortened: as §1

[6] = tested on: crabgrass (Digitaria sanguinalis); assay: Test C preemergence; conditions: for Plant response rating, Crabgrass: scale 0 to 100, 0 no effect, 100 complete control; for Plant response rating (0 to 100), Crabgrass: preemergence, visual evaluation after 12 to 14 days
Procedure, shortened: as §1

[7] = tested on: giant foxtail (Setaria faberii); assay: Test C preemergence; conditions: for Plant response rating, Foxtail, Giant: scale 0 to 100, 0 no effect, 100 complete control; for Plant response rating (0 to 100), Foxtail, Giant: preemergence, visual evaluation after 12 to 14 days
Procedure, shortened: as §1

[8] = tested on: goosegrass (Eleusine indica); assay: Test C preemergence; conditions: for Plant response rating, Goosegrass: scale 0 to 100, 0 no effect, 100 complete control; for Plant response rating (0 to 100), Goosegrass: preemergence, visual evaluation after 12 to 14 days
Procedure, shortened: as §1

[9] = tested on: johnsongrass (Sorghum halepense); assay: Test C preemergence; conditions: for Plant response rating, Johnsongrass: scale 0 to 100, 0 no effect, 100 complete control; for Plant response rating (0 to 100), Johnsongrass: preemergence, visual evaluation after 12 to 14 days
Procedure, shortened: as §1

kochia (Kochia scoparia) = assay: Test C preemergence; conditions: for Plant response rating, Kochia: scale 0 to 100, 0 no effect, 100 complete control
Procedure, shortened: as §1

[10] = tested on: lambsquarters (Chenopodium album); assay: Test C preemergence; conditions: for Plant response rating, Lambsquarters: scale 0 to 100, 0 no effect, 100 complete control
Procedure, shortened: as §1

[11] = tested on: morningglory (Ipomoea hederacea); assay: Test C preemergence; conditions: for Plant response rating, Morningglory: scale 0 to 100, 0 no effect, 100 complete control
Procedure, shortened: as §1

[12] = tested on: pigweed (Amaranthus retroflexus); assay: Test C preemergence; conditions: for Plant response rating, Pigweed: scale 0 to 100, 0 no effect, 100 complete control
Procedure, shortened: as §1

soybean (Glycine max) = assay: Test C preemergence; conditions: for Plant response rating, Soybean: scale 0 to 100, 0 no effect, 100 complete control
Procedure, shortened: as §1

[13] = tested on: velvetleaf (Abutilon theophrasti); assay: Test C preemergence; conditions: for Plant response rating, Velvetleaf: scale 0 to 100, 0 no effect, 100 complete control
Procedure, shortened: as §1

[14] = tested on: woolly cupgrass (Eriochloa villosa); assay: Test C preemergence; conditions: for Plant response rating, Cupgrass, Woolly: scale 0 to 100, 0 no effect, 100 complete control; for Plant response rating (0 to 100), Cupgrass, Woolly: preemergence, visual evaluation after 12 to 14 days
Procedure, shortened: as §1

[15] = tested on: yellow nutsedge (Cyperus esculentus); assay: Test C preemergence; conditions: for Plant response rating, Nutsedge: scale 0 to 100, 0 no effect, 100 complete control
Procedure, shortened: as §1

[16] = tested on: barnyardgrass (Echinochloa crus-galli); assay: Test C flooded paddy test; conditions: for Barnyardgrass plant response rating: Flooded Paddy, scale 0 to 100, 0 no effect, 100 complete control
Procedure, shortened: (§2)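 Rice and three paddy weeds were grown to the 2-leaf stage under flooded conditions, then treated and kept in a greenhouse for 12–14 days. Response was rated visually against untreated controls on a 0–100 scale, where 100 is complete control.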

rice (Oryza saliva) = assay: Test C flooded paddy test; conditions: for Rice plant response rating: Flooded Paddy, scale 0 to 100, 0 no effect, 100 complete control; for Plant response rating, Rice: flooded paddy test, scale 0 to 100 (0 no effect, 100 complete control)
Procedure, shortened: as §2

Sunflower [17] = assay: Test C preemergence; conditions: Rate 500 g/ha, visual evaluation after 12 to 14 days
[18] = preemergence, Rate 500 g/ha, visual evaluation after 12 to 14 days

CC(C)(C)c1ccn(C2CCN(c3ccc(F)c(Br)c3)C2=O)n1 (stereo not drawn) [Compound 75]
0: Plant response rating, Nightshade (Nightshade; Rate 62 g/ha) | Plant response rating, Nightshade (Nightshade; Rate 125 g/ha) | Plant response rating, Nightshade (Nightshade; Rate 250 g/ha) | Plant response rating, Sunflower (Sunflower [1]) | Plant response rating, Cocklebur ([4]; Rate 62 g/ha) | Plant response rating, Cocklebur ([4]; Rate 125 g/ha) | Plant response rating (0 to 100), Cocklebur ([4]; Rate 250 g/ha) | Plant response rating (0 to 100), Cocklebur ([4]; Rate 500 g/ha) | Plant response rating, Ragweed, Common ([5]; Rate 125 g/ha) | Plant response rating, Ragweed, Common ([5]; preemergence, Rate 250 g/ha) | Plant response rating, Corn (corn (Zea mays); Rate 62 g/ha) | Plant response rating, Corn (corn (Zea mays); Rate 125 g/ha) | Plant response rating (0 to 100), Corn (corn (Zea mays); Rate 250 g/ha) | Plant response rating (0 to 100), Corn (corn (Zea mays); Rate 500 g/ha) | Plant response rating, Johnsongrass ([9]; Rate 62 g/ha) | Plant response rating, Johnsongrass ([9]; Rate 125 g/ha) | Plant response rating, Morningglory ([11]; Rate 62 g/ha) | Plant response rating, Morningglory ([11]; Rate 125 g/ha) | Plant response rating (0 to 100), Morningglory [11, 18] | Plant response rating, Morningglory ([11]; preemergence, Rate 250 g/ha) | Plant response rating, Soybean (soybean (Glycine max); Rate 125 g/ha) | Plant response rating, Soybean (soybean (Glycine max); preemergence, Rate 250 g/ha) | Plant response rating, Velvetleaf ([13]; Rate 125 g/ha) | Plant response rating (0 to 100), Velvetleaf [13, 18] | Plant response rating, Velvetleaf ([13]; preemergence, Rate 250 g/ha) | Plant response rating, Nutsedge ([15]; Rate 62 g/ha) | Plant response rating, Nutsedge ([15]; Rate 125 g/ha) | Plant response rating, Rice (rice (Oryza saliva); Rate 62 g/ha) | Plant response rating, Rice (rice (Oryza saliva); Rate 125 g/ha)
40: Plant response rating, Surinam grass ([2]; Rate 125 g/ha) | Rice plant response rating (rice (Oryza saliva); Rate 500 g/ha)
90: Plant response rating, Crabgrass ([6]; Rate 62 g/ha) | Plant response rating, Foxtail, Giant ([7]; Rate 62 g/ha) | Plant response rating, Goosegrass ([8]; Rate 62 g/ha)
80: Plant response rating, Cupgrass, Woolly ([14]; Rate 125 g/ha) | Barnyardgrass plant response rating ([16]; Rate 250 g/ha)
50: Plant response rating (0 to 100), Soybean (soybean (Glycine max); [18]) | Plant response rating (0 to 100), Nutsedge [15, 18] | Plant response rating, Nutsedge ([15]; preemergence, Rate 250 g/ha) | Plant response rating (0 to 100), Sunflower (Sunflower [17])
70: Plant response rating (0 to 100), Foxtail, Giant ([7]; Rate 250 g/ha) | Plant response rating, Barnyardgrass ([16]; flooded paddy test, Rate 62 g/ha, scale 0 to 100 (0 no effect, 100 complete control))
60: Plant response rating (0 to 100), Surinam grass ([2]; Rate 250 g/ha) | Plant response rating (0 to 100), Surinam grass ([2]; Rate 500 g/ha) | Plant response rating (0 to 100), Ragweed, Common [5, 18] | Plant response rating, Cupgrass, Woolly ([14]; Rate 62 g/ha)
100: Plant response rating, Bermudagrass ([3]; Rate 62 g/ha) | Plant response rating, Bermudagrass ([3]; Rate 125 g/ha) | Plant response rating (0 to 100 where 0 is no effect and 100 is complete control), Bermudagrass ([3]; Rate 250 g/ha) | Plant response rating (0 to 100 where 0 is no effect and 100 is complete control), Bermudagrass ([3]; Rate 500 g/ha) | Plant response rating, Crabgrass ([6]; Rate 125 g/ha) | Plant response rating (0 to 100), Crabgrass ([6]; Rate 250 g/ha) | Plant response rating (0 to 100), Crabgrass ([6]; Rate 500 g/ha) | Plant response rating, Foxtail, Giant ([7]; Rate 125 g/ha) | Plant response rating (0 to 100), Foxtail, Giant ([7]; Rate 500 g/ha) | Plant response rating, Goosegrass ([8]; Rate 125 g/ha) | Plant response rating (0 to 100), Goosegrass ([8]; Rate 250 g/ha) | Plant response rating (0 to 100), Goosegrass ([8]; Rate 500 g/ha) | Plant response rating, Kochia (kochia (Kochia scoparia); Rate 62 g/ha) | Plant response rating, Kochia (kochia (Kochia scoparia); Rate 125 g/ha) | Plant response rating (0 to 100), Kochia (kochia (Kochia scoparia); preemergence, Rate 250 g/ha, visual evaluation after 12 to 14 days) | Plant response rating, Lambsquarters ([10]; Rate 62 g/ha) | Plant response rating, Lambsquarters ([10]; Rate 125 g/ha) | Plant response rating (0 to 100), Lambsquarters [10, 18] | Plant response rating, Lambsquarters ([10]; preemergence, Rate 250 g/ha) | Plant response rating, Pigweed ([12]; Rate 125 g/ha) | Plant response rating (0 to 100), Pigweed [12, 18] | Plant response rating, Pigweed ([12]; preemergence, Rate 250 g/ha) | Plant response rating (0 to 100), Cupgrass, Woolly ([14]; Rate 250 g/ha) | Plant response rating (0 to 100), Cupgrass, Woolly ([14]; Rate 500 g/ha) | Barnyardgrass plant response rating ([16]; Rate 500 g/ha)
10: Plant response rating, Surinam grass ([2]; Rate 62 g/ha)
30: Plant response rating (0 to 100), Johnsongrass ([9]; Rate 250 g/ha) | Plant response rating (0 to 100), Johnsongrass ([9]; Rate 500 g/ha) | Rice plant response rating (rice (Oryza saliva); Rate 250 g/ha)
